# Laboratory results reported in patent publication EP1191024A1, “Thiadiazines and their use as inhibitors of metalloproteinases” (Tschesche, Harald, priority 2000, dated 2002).
# Columns and labels:
# [1] = molecular target: cdMMP-2 (Homo sapiens, UniProt P08253); assay: MMP microfluorometric profiling assay (fluorogenic Mca-peptide substrate); type: biochemical; details: read-out: cdMMP-2 IC50
# Protocol: The tested MMP enzymes were prepared more specifically in the laboratories of the applicants, with the exception of MMP-1. MMP-1 from human rheumatoid synovial fibroblasts was purchased from Calbiochem-Novabiochem Corporation, LaJolla. Preparation of the recombinant catalytic domain of human Gelatinase A (cdMMP-2): The catalytic domain of Pro-Gelatinase A was prepared using an E. coli expression system according to the method described by Kröger et al^[19]. The proenzyme was activated with 0.5 mM APMA at 37°C prior to use in the assay. […] Preparation of PMNL-Gelatinase (MMP-9): Latent PMNL-pro-Gelatinase was prepared from human plasma buffy coat as described by Tschesche et al^[21]. PMNL-pro-Gelatinase was activated prior to use by incubation with Trypsin at 37°C for 10 min. Inactivation of Trypsin was accomplished with TKI. […] The overexpressed protein was isolated as inclusion bodies and the renatured protein was purified by affinity chromatography with a hydroxamate inhibitor coupled column as described^[22]. Preparation of the recombinant catalytic domain of human Collagenase-3 (cdMMP-13): Human pro-cdMMP-13 was prepared using an E. coli expression system according to the method described^[23]. The isolated pro-cdMMP-13 was activated prior to use by incubation with 5 mM HgCl2 for 2 h at 37°C.
# (§1) The enzymatic activity was measured using a modified version of a resonance energy transfer fluorogenic assay as described^[26]. Progress curves were monitored by following the increase in fluorescence at 393 nm (λex = 328 nm), induced by the cleavage of the (7-methoxycoumarin-4-yl)acetyl-Pro-Leu-Gly-Leu-(3-[2,4-dinitro-phenyl]-L-2,3-diamino-propionyl)-Ala-Arg-NH2 (Mca-Pro-Leu-Gly-Leu-Dpa-Ala-Arg-NH2) fluorogenic substrate by MMPs. The fluorescent MCA-group is quenched by resonance energy transfer to the 2,4-dinitrophenyl group. Matrix metalloproteinases cleave this substrate at the Gly-Leu bond. Cleavage results in the loss of energy transfer and a large increase in fluorescence of the MCA group. This substrate is commercially available from Bachem, Switzerland.
# (§2) Enzyme inhibition assays were carried out in MRB which consisted of 50 mM HEPES/NaOH, pH 7.0, 10 mM CaCl2 and 0,02% (w/v) PEG 8000 at 25°C. MMP microfluorometric profiling assay was done in white U-bottomed 96-well plates (Microfluor 1 White, Dynex, USA) with a final substrate concentration of 6 µM MCA-peptide, approximately 0.3 to 5 nM MMP with variable inhibitor concentrations and 2% DMSO vehicle. From a 1.5 mM stock (100% DMSO) the inhibitors were serially diluted with MRB to 15, 10, 5, 3, 1, 0.6, 0.3, 0.1, 0.05, 0.01 and 0.005 µM final assay concentration. Column 1, rows A through H, contained only DMSO for the "enzyme-only" wells in the assay. After preincubation for 30 min at 25°C the reaction was started by addition of substrate and the plate was read on a SpectraFluor Plus (Tecan, Germany) plate reader with excitation at 330 nm and emission at 405 nm with the gain set to 150. Each measurement was done in triplicate to ensure statistically significant results. The experiment was further controlled for background fluorescence of the substrate, for fluorescence of fully cleaved substrate and for fluorescence quenching or augmentation from solutions containing the test compounds.
# Datapoints from eight different MMPs generated on the SpectraFluor Plus were directly visualized on a master Excel spreadsheet. The response of inhibition was determinated for each inhibitor concentration by comparing the amount of hydrolysis (fluorescence units generated over 30 minutes of hydrolysis) of wells containing compound with the "enzyme-only" wells in column 1. With the program GraFit (Erithacus Software Limited) a 4 parameter logistic fit to the dose-response data was used to calculate IC50 values for each compound.
# [2] = molecular target: T1, cdMMP-14 (Homo sapiens, UniProt P50281); assay: as above; type: biochemical
# T1 construct: made in house; host or cells: E. coli
# Protocol: (§3) The tested MMP enzymes were prepared more specifically in the laboratories of the applicants, with the exception of MMP-1. MMP-1 from human rheumatoid synovial fibroblasts was purchased from Calbiochem-Novabiochem Corporation, LaJolla. Preparation of the recombinant catalytic domain of human Gelatinase A (cdMMP-2): The catalytic domain of Pro-Gelatinase A was prepared using an E. coli expression system according to the method described by Kröger et al^[19]. The proenzyme was activated with 0.5 mM APMA at 37°C prior to use in the assay. Preparation of the recombinant catalytic domain of human neutrophile Collagenase (cdMMP-8^Met80): The enzyme was expressed in E. coli as an active variant by the method of Kleine et al^[20]. Preparation of PMNL-Gelatinase (MMP-9): Latent PMNL-pro-Gelatinase was prepared from human plasma buffy coat as described by Tschesche et al^[21]. PMNL-pro-Gelatinase was activated prior to use by incubation with Trypsin at 37°C for 10 min. Inactivation of Trypsin was accomplished with TKI. Preparation of the recombinant catalytic domain of human Macrophage Elastase (cdMMP-12): The catalytic domain of MMP-12 was expressed in E. coli. The overexpressed protein was isolated as inclusion bodies and the renatured protein was purified by affinity chromatography with a hydroxamate inhibitor coupled column as described^[22]. Preparation of the recombinant catalytic domain of human Collagenase-3 (cdMMP-13): Human pro-cdMMP-13 was prepared using an E. coli expression system according to the method described^[23]. The isolated pro-cdMMP-13 was activated prior to use by incubation with 5 mM HgCl2 for 2 h at 37°C. Preparation of the recombinant catalytic domain of Membrane-Type-1 MMP (cdMMP-14): The catalytic domain of MMP-14 was expressed in E. coli and was activated by autocatalysis^[24]. Preparation of the recombinant human ectodomain of Membrane-Type-1 MMP (ΔTM-MMP-14): The ectodomain of MMP-14 was expressed in Pichia Pastoris by the method of Roderfeld et al. and activated by yeast proteases (Furin-like-proteases) during maturation^[25].
# as §1
# as §2, with “The experiment was further controlled for background fluorescence of the substrate, for fluorescence of fully cleaved substrate and for fluorescence quenching or augmentation from solutions containing the test compounds.” left out
# [3] = molecular target: T2, cdMMP-12 (Homo sapiens, UniProt P39900); assay: as above; type: biochemical
# T2 construct: The catalytic domain of MMP-12 was expressed in E. coli; made in house; host or cells: E. coli
# T2 sequence (P39900 106-263 limits assumed): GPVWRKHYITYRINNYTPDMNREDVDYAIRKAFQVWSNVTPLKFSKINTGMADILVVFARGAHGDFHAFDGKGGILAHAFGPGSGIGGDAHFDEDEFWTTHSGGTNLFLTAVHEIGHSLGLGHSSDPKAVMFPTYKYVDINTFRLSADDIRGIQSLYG
# Protocol: as §3, §1
# as §2, with “The experiment was further controlled for background fluorescence of the substrate, for fluorescence of fully cleaved substrate and for fluorescence quenching or augmentation from solutions containing the test compounds.” left out
# [4] = molecular target: T3, MMP-1 (Homo sapiens, UniProt P03956); assay: as above; type: biochemical
# T3 construct: MMP-1 from human rheumatoid synovial fibroblasts was purchased; purchased Calbiochem-Novabiochem Corporation, LaJolla; host or cells: human rheumatoid synovial fibroblasts
# T3 sequence (P03956 100-469): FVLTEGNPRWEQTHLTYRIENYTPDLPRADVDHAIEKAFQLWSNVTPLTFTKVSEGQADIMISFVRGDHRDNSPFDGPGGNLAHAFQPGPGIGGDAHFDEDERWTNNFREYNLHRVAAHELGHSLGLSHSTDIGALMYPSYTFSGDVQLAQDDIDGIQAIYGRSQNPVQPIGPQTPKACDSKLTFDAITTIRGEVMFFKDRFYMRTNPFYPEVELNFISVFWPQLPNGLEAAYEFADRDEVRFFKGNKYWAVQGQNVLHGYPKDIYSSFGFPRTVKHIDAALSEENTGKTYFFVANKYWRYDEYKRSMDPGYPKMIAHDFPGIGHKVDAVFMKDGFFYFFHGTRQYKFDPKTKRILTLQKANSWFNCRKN
# Protocol: as §3, §1
# as §2, with “The experiment was further controlled for background fluorescence of the substrate, for fluorescence of fully cleaved substrate and for fluorescence quenching or augmentation from solutions containing the test compounds.” left out
# [5] = molecular target: T4, MMP-9 (Homo sapiens, UniProt P14780); assay: as above; type: biochemical
# T4 construct: from tissue; host or cells: human plasma buffy coat (PMNL)
# T4 sequence (P14780 107-707 limits assumed): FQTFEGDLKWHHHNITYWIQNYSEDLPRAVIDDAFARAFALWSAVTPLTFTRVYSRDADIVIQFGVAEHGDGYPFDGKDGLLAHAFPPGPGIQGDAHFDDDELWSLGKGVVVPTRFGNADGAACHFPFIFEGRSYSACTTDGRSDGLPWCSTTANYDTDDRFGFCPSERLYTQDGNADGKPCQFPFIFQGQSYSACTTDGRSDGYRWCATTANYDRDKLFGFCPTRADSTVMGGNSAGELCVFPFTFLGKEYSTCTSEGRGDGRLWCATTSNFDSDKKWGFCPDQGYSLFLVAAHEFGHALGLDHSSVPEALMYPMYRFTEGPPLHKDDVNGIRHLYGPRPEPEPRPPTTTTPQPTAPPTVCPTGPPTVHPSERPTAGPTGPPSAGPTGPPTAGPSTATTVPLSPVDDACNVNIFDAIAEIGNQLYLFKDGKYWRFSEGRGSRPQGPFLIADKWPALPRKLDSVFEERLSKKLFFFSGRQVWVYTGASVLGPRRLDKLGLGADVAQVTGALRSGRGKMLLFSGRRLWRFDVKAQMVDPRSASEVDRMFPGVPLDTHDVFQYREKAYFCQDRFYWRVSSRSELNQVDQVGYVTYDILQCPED
# Protocol: as §3, §1
# as §2, with “The experiment was further controlled for background fluorescence of the substrate, for fluorescence of fully cleaved substrate and for fluorescence quenching or augmentation from solutions containing the test compounds.” left out
# [6] = molecular target: cdMMP-13 (Homo sapiens, UniProt P45452); assay: as above; type: biochemical; details: read-out: cdMMP-13 IC50
# Protocol: as §3, §1
# as §2, with “The experiment was further controlled for background fluorescence of the substrate, for fluorescence of fully cleaved substrate and for fluorescence quenching or augmentation from solutions containing the test compounds.” left out
# [7] = molecular target: MMPs; assay: Ki determination in microfluorometric assay (Cheng-Prusoff, enzyme not specified); type: biochemical, human; details: enzyme not given
# Protocol: as §1
# Enzyme inhibition assays were carried out in MRB which consisted of 50 mM HEPES/NaOH, pH 7.0, 10 mM CaCl2 and 0,02% (w/v) PEG 8000 at 25°C. […] After preincubation for 30 min at 25°C the reaction was started by addition of substrate and the plate was read on a SpectraFluor Plus (Tecan, Germany) plate reader with excitation at 330 nm and emission at 405 nm with the gain set to 150. […] The experiment was further controlled for background fluorescence of the substrate, for fluorescence of fully cleaved substrate and for fluorescence quenching or augmentation from solutions containing the test compounds. […]
# cdMMP-2, sequence (P08253 110-446): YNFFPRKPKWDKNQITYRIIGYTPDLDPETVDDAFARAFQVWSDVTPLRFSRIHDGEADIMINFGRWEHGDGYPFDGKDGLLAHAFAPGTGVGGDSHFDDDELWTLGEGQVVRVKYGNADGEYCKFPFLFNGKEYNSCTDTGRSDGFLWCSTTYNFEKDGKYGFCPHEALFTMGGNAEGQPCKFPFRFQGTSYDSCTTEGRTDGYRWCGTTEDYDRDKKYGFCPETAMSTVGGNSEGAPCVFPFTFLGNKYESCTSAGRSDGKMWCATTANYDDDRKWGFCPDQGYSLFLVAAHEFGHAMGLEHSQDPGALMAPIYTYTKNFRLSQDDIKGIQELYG
IC50 [1] [nM],IC50 [2] [nM],IC50 [3] [nM],IC50 [4] [nM],IC50 [5] [nM],IC50 [6] [nM],Ki [7] [nM],Compound
743,839,338,500,684,1170,,"C[C@H](NS(=O)(=O)c1ccccc1)C(=O)NC1=NN=C(c2ccc(F)cc2)CS1 [Example 13, (2S)-N-[5-(4-Fluorophenyl)-6H-1,3,4-thiadiazin-2-yl]-2-[(phenylsulfonyl)amino]-propanamide]"
,,,,,,~100,"CC(C)(NS(=O)(=O)c1ccccc1)C(=O)NC1=NN=C(c2ccc(Cl)cc2)CS1 [Example 20, N-[5-(4-Chlorophenyl)-6H-1,3,4-thiadiazin-2-yl]-2-methyl-2-[(phenylsulfonyl)-amino]propanamide]"
